Experimental data from patent publication US20220096450A1, “Compounds and Methods for Treating or Preventing Heart Failure” (DREXEL UNIVERSITY, priority 2019, published 2022).

Test system: mitochondrial CoQ-dependent respiratory complex III
Assay: Biochemical selectivity assay, respiratory complex III
Design: species or system mouse
Details: highest concentration tested 11 μM
Protocol: Inhibitor selectivity was assessed using mouse muscle homogenate preparations that contain disrupted mitochondrial membranes, a feature that makes substrates accessible to each of the membrane-bound respiratory complexes. Spectrophotometric assays for each complex are conducted in the presence or absence of a target-specific inhibitor (FIG. 9) to correct for nonspecific substrate oxidation, as previously described (Spinazzi et al., 2012, Nature Protocols 7: 1235-1246). Thus, the activity of complex I is determined by monitoring the oxidation of NADH in the absence or presence of rotenone. Complex III activity is measured based on the rate of cytochrome C reduction observed in the presence or absence of antimycin A. The reaction catalyzed by complex II produces decylubiquinol (decylCoQH2), which rapidly reduces DCIP.

Structure (SMILES): COc1nc(-c2ncccc2C)cc(-c2ccc(N)cc2)c1C#N [FC9402, 4-(4-aminophenyl)-2-methoxy-6-(3-methylpyridin-2-yl)pyridine-3-carbonitrile]
- inhibition of respiratory complex III: did not inhibit
